Numbered stars: 1 amine (or outer) side, 2 acyl side, 3 side chain; on linkers, the order of the positions; unused ones are H or OH. Square brackets hold non-standard residues; d marks the D form. Suc = O=C(CCC(=O)[*:2])[*:1]; NMeV = CN[C@H](C(=O)O)C(C)C; βAla = NCCC(=O)O
Columns and labels:
[1] = system: Tilapia tac3ra and tac3rb; experiment: CRE-luciferase reporter assay in COS-7 cells transfected with tilapia tac3 receptor; type: cell-based; conditions: for effect of antagonist alone on luciferase activity (CRE-Luc): no ligand; for inhibition of luciferase activity, antagonist with native ligands: different concentrations added concomitantly with 0.1 nM NKB or NKF
Excerpt: There are two signal transduction pathways, one is relayed trough cAMP/PKA (protein kinase A), and the second is trough Ca2+/PKC. The PKA pathway is activated by CRE (cAMP response element) and the PKC through SRE ([…] response element).
In order to differentiate between the PKC and PKA signal transduction pathways, a sensitive luciferase (LUC) reporter gene assay was utilized by using the LUC transcriptionally regulated by a serum response element (SRE; Invitrogen) or cyclic AMP (cAMP) response element (CRE; Invitrogen). Tilapia tac3ra and tac3rb (GenBank accession numbers KF471674 and KF471675, respectively) or zebrafish tac3ra and tac3rb (JF317292, and JF317293, respectively) were cloned in pcDNA3.1 expression vector (Zeo-; Invitrogen) under the control of the CMV promoter.
Transient transfection, cell procedures and stimulation protocols were generally according to (Levavi-Sivan et al., 2005, Mol Cell Endocrinol 236:17-30; Biran et al., 2008, ibid, Biran et al., 2012, ibid, Biran et al., 2014 ibid). Briefly, COS-7 cells were grown in DMEM supplemented with 10% FBS, 1% glutamine, 100 U/ml penicillin, and […] streptomycin (Biological Industries) under 5% CO2 until confluent. Cotransfection of either pc-tac3ra, pc-tac3rb (at 3 μg/plate), a reporter plasmid (at 2 μg/plate), and pCM.
Transfection was carried out with FuGENE 6.0 reagent (Roche). The cells were serum starved for 36 h, stimulated with vehicle or various concentrations of either human NKB, tilapia NKB, tilapia NKF, zebrafish NKBa, NKBb or zebrafish NKF for 6 h, and then harvested and analyzed.
Lysates prepared from the harvested cells were assayed for both luciferase activity and β-galactosidase activity, which was used as an internal standard to normalize the luciferase activity directed by the test plasmid, as described previously. Transfection experiments were performed in triplicate with three independently isolated sets.
The concentrations of ligand used were from 1 nM to 1 μM. Treatments were performed in quadruplicate in three independent experiments.
Each antagonist was added at different concentrations with a constant concentration of the wild-type NKB or NKF, at a dose of the ligand (10^−8M) that gave a response close to the ED50. The results were analyzed by Prism software, according to a non-linear regression one-site competition curve.
The effect of NKB antagonists was tested in tilapia when each antagonist was added at different concentration concomitantly with NKB at 10^−8 M ([…]). Tilapia NKB increased the luciferase activity by 1.8 fold. The various antagonists reduced this response by approximately 60% (FIG. 1A). Similar results were obtained using the SRE response (FIG. 1B). […]

[2] = system: gonadotropin release in tilapia; experiment: In vivo gonadotropin (FSH, LH) release in sexually mature tilapia females; conditions: 10, 100 or 500 μg/kg body weight injected; 1, 2, 4, 8 h; starting 1 hour after injection
Experimental: SB222200 was further tested in vivo for its NKB antagonistic activity on gonadotropin release in tilapia. Sexually mature tilapia females (0.62±0.22%; n=10/treatment) were injected with different doses of the NKB non-peptide antagonist SB222200 (10, 100 or 500 μg/kg body weight) at time 0. 1, 2, 4 and 8 hours after the injection the fish were bled from their caudal vasculature. The levels of the gonadotropins FSH and LH were determined using specific ELISA according to Aizen et al., 2007 (Aizen et al., 2007, Gen Comp Endocrinol, vol. 153, pp 323-332).

[3] = system: Adult male Tilapia; experiment: In vivo ip injection of adult male tilapia: testis histology, plasma 11KT; conditions: versus control; for increase of plasma 11KT levels: 500 μg/kg BW ip every 48 h, 0 to 12 days
Experimental: Adult male Tilapia (BW 90 g) were injected ip with saline and 25% DMSO, SB2222000, or the NKB antagonists Ant-4 (500 μg/kg BW every 48 h for 2 weeks, […]). The fish were bled from the caudal blood vessels into heparinized syringes every 2 days after injection. At days 7 and 14 five fish from each group were bled, striped for sperm volume and gonads were taken for Histology. Plasma was analyzed for LH, FSH and 11KT. Blood samples were collected from the caudal vasculature and centrifuged (3000 rpm for 20 minutes at 4° C.) to obtain plasma samples, which were stored at −20° C. until assayed, ELISAs were performed according to (Aizen et al., 2007, Gen Comp Endocrinol, vol. 153, pp 323-332) for FSH and LH and according to Hurvitz et al., 2005 (Gen Comp Endocrinol 140:61-73) for 11KT 1-ketotestosterone, the main androgen in fish which is involved in spermatogenesis). FIG. 6 represents histological observations of gonads from testes of treated fish versus control fish. Fish testes are organized in cysts. […] From right to left: semen from fish injected with SB222200; semen from control fish; semen from fish injected with NKB-antagonist #4. 11KT is the main androgen in fish and is involved in spermatogenesis.

[4] = system: Adult male Tilapia; experiment: In vivo growth of injected adult male tilapia; conditions: 500 μg/kg BW ip every 48 h for 2 weeks; day 21, seven days after end of treatment
Experimental: Adult male tilapia (BW 60 g) were injected ip with saline and 25% DMSO, SB2222000, or NKB antagonists Ant-6 (500 μg/kg BW every 48 h for 2 weeks, n=25 fish per group). Fish were weighed every 7 days.

[5] = system: Salmon tac3 receptor; experiment: CRE-Luc reporter assay in COS-7 cells transfected with salmon tac3r; type: cell-based; conditions: with wild-type NKB at 10^-8 M
Experimental: Similar to the in-vitro experiments performed in Example 2 in Tilapia and Zebrafish, the inhibition of NKB activity was tested in Salmon fish. Salmon tac3 receptor was cloned in pcDNA3.1 expression vector (Zeo-; Invitrogen) under the control of the CMV promoter. Transfection was carried out with FuGENE 6.0 reagent (Roche). The cells were serum starved for 36 h, stimulated with vehicle or various concentrations of either tilapia NKB for 6 h, and then harvested and analyzed. Lysates prepared from the harvested cells were assayed for both luciferase activity and β-galactosidase activity, which was used as an internal standard to normalize the luciferase activity directed by the test plasmid. Transfection experiments were performed in triplicate with three independently isolated sets. The concentrations of ligand used were from 1 nM to 1 μM. Treatments were performed in quadruplicate in three independent experiments. Each antagonist (NKB-ant 4 and NKB-ant 6) was added at different concentrations with a constant concentration of the wild-type NKB (10^−8M) that gave a response close to the ED50. The results were analyzed by Prism software, according to a non-linear regression one-site competition curve. When salmon tac3 was transfected, NKB increased the luciferase activity by 1.8 fold.

CC(=O)N(C)C1(c2ccccc2)CCN(CCCC2(c3ccc(Cl)c(Cl)c3)CCCN(C(=O)c3ccccc3)C2)CC1 (stereo in doubt) [Osanetant (SR-142,801), (S)-(1)-N-{{3-[1-benzoyl-3-(3,4-dichlorophenyl)piperidin-3-yl]prop-1-yl}-4-phenylpiperidin-4-yl}-N-methyl acetamide]
effect of antagonist alone on luciferase activity (CRE-Luc) [1]: no effect | inhibition of luciferase activity, antagonist with native ligands [1]: typical inhibition curve

CC[C@H](NC(=O)c1c(C)c(-c2ccccc2)nc2ccccc12)c1ccccc1 [SB222200, (S)-(2)-N-(a-ethylbenzyl)-3-methyl-2-phenylquinoline-4-carboxamide]
FSH levels [2]: significant gradual decline | LH levels [2]: significant gradual decline | effect of antagonist alone on luciferase activity (CRE-Luc) [1]: no effect | inhibition of luciferase activity, antagonist with native ligands [1]: typical inhibition curve | increase of plasma 11KT levels [3]: significantly inhibited | growth (body weight) [4]: significant growth

Succ-Asp-Ile-D-Trp-N(Me)Val-βAla-Leu-Met-NH2 (Suc-DI[dW][NMeV][βAla]LM-NH2; SMILES CC[C@H](C)[C@H](NC(=O)[C@H](CC(=O)O)NC(=O)CCC(=O)O)C(=O)N[C@H](Cc1c[nH]c2ccccc12)C(=O)N(C)[C@H](C(=O)NCCC(=O)N[C@@H](CC(C)C)C(=O)N[C@@H](CCSC)C(N)=O)C(C)C) [Ant-4]
increase of plasma 11KT levels [3]: significantly inhibited | histological observations of testes ([3]; 500 μg/kg BW ip every 48 h for 2 weeks): more partially empty cysts with mature spermatozoa | reduction of the NKB luciferase response by antagonist [5]: approximately 60%

Reference: patent US10793614B2, “Antagonists of fish reproduction” (Yissum Research Development Company of the Hebrew …, priority 2014, dated 2020)
